Type in all cases: cell-based
One series deals with OCI-Ly3 cells. Briefly: B-cell lymphoma cell proliferation (WST-1 assay), OCI-Ly3. Particulars: OCI-Ly3, 3 days of incubation. As to the method: Cell proliferation was determined using the WST-1 assay (Roche, Mannheim, Germany), which measures the metabolic activity of the cells. […] The cell proliferation reagent WST-1 (10 μl/well) was added to the cells for 1-2 hours depending on the cell type which were cultured in 200 μl of medium. The absorbance was then measured with an enzyme-linked immunosorbent assay plate reader at a wavelength of 450 nm.

The test system of series [1] is phosphorylation of BLNK in Ramos B cells. Put plainly: Anti IgM-induced phosphorylation of BLNK in Ramos B cells. To be noted: Homo sapiens, 0.25 h, anti IgM 15 min, flow cytometry anti-BLNK (pY84). On the procedure:
Anti IgM-induced phosphorylation of BLNK (BLNK=B cell linker (SLP65=SH2 domain containing leukocyte protein of 65 kDa)) in Ramos B cells: Ramos B cells in a volume of 25 μl were incubated with 25 μl of the compound solution at 2-fold the desired final concentration for 30 min. at 37° C. Then 50 μL anti IgM was added, mixed and incubated for 15 min. at 37° C. In each experiment 8-fold serial dilutions of compounds were tested. The stimulation was stopped by addition of 100 μL/well of PFA (para formaldehyde) I PBS (phosphate buffered saline) (final conc. 2% PFA) for fixation and incubated for 15 min. at 37° C., then centrifuged at 1300 rpm for 3 min and permeabilized by resuspending the cell pellet in 100 μL methanol 90% and further incubated for 30 min at 4° C. The cells were then washed and phosphoproteins were detected by flow cytometry using fluorescently labeled anti-BLNK ([…]) (BD Biosciences).

The target of another series is T1, hERG channel (Homo sapiens, UniProt Q12809).
T1 construct: host or cells: HEK293
Put plainly: Inhibition of the hERG channel (manual patch clamp assay). To be noted: HEK293 cells stably transfected with hERG cDNA, whole-cell patch clamp, tail current. The source says:
The hERG patch clamp assay was done according to standard procedures used in Genetic Toxicology and Safety Pharmacology, based on recommendations and descriptions of methods in the literature, and according to current guidelines (ICH S7B, The non clinical evaluation of the potential for delayed ventricular repolarization (QT interval prolongation) by human pharmaceuticals, 2005). The purpose of the study is to assess the effect of the test item ABC123 on tail current recorded from HEK293 cells stably transfected with hERG cDNA. The HEK293 cells, which have been stably transfected with hERG cDNA, are a model considered to be suitable for this purpose (Zhou et al., 1998). Repolarisation of cardiac ventricular myocytes is mainly due to outward potassium currents. The most important current in humans is the delayed rectifier potassium current, IK, which has both rapidly and slowly activating components (IKr and IKs) (Sanguinetti and Jurkiewicz, 1990). The human ether-a-gogo-related-gene (hERG) encodes the major protein underlying IKr. Thus, inhibition of hERG potassium channels may lead to delayed cardiac repolarisation (Sanguinetti et al., 1995). Prolongation of cardiac repolarisation is a side effect that can be associated with some drug therapies. This proarrhythmic alteration is characterised by a prolongation of the QT interval in the surface electrocardiogram and is of particular concern because it may lead to the development of polymorphic ventricular arrhythmias like torsade de pointes (for review see: Vandenberg, Walker and Campbell, 2001). […] HERG HEK (HEK293 cells stably transfected with hERG cDNA) obtained from the University of Wisconsin were used. For the experiments the cells were plated onto sterile Thermanox plastic coverslips (Nalge Nunc International) in 6-well plates. The dishes were stored in a humidified, gassed incubator. The coverslips with cells were transferred to the recording chamber and continuously superfused (at approximately 1-2 ml/min) with vehicle. The temperature of the vehicle in the bath chamber was regulated by temperature controllers to 35° C.±2.0° C. hERG currents were measured in the whole-cell patch-clamp configuration. Once a stable patch clamp configuration was achieved, recording commenced in voltage-clamp mode, with the cell initially clamped at -75 mV. hERG current was observed and recorded if a stable hERG tail current response could be induced. […] The hERG HEK293 cells were treated approximately 9 min with the test item. The following voltage protocol was applied to induce hERG currents: The step from -75 mV to +10 mV activates an outward current (i.e. current flows out of the cell) and the step from +10 mV to -40 mV produces the tail current (the tail current represents the time taken for the current to turn off). […] The leak current was recorded and subtracted by a P/3n pulse between the voltage pulses (0.1 Hz).

T1 sequence (Q12809 whole entry): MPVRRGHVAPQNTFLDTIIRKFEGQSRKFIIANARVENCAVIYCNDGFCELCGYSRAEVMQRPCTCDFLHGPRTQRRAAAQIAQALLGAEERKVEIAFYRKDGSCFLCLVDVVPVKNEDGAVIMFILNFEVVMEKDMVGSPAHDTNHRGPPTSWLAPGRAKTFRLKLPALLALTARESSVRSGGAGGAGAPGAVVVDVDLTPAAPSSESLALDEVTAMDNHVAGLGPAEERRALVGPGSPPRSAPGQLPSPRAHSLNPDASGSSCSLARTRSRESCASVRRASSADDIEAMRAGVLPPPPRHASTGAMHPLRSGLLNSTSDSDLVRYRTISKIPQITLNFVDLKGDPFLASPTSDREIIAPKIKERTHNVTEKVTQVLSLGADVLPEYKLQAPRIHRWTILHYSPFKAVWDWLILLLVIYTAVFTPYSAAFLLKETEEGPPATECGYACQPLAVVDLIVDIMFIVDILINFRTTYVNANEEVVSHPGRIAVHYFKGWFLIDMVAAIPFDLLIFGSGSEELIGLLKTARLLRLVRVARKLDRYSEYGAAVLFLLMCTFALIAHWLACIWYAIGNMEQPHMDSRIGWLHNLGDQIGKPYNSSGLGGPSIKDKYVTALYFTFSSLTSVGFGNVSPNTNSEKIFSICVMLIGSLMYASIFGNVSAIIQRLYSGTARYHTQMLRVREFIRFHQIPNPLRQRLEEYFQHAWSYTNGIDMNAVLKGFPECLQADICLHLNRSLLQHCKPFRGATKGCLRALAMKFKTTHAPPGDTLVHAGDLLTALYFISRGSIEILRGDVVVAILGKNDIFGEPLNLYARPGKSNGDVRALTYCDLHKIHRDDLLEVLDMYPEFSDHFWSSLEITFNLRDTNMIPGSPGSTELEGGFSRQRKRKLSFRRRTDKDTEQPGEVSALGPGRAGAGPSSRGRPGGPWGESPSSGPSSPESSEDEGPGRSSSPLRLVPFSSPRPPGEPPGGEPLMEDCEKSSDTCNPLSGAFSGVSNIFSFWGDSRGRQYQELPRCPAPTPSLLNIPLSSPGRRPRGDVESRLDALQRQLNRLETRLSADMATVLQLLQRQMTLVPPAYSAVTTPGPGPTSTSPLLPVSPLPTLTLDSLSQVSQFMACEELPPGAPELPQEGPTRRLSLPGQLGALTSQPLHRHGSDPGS

For the compound `NC(=O)c1nnc(N[C@@H]2CCCC[C@@H]2N)nc1Nc1cccc2cc[nH]c12` [Example 1.1, 3-((1R,2S)-2-Amino-cyclohexylamino)-5-(1H-indol-7-ylamino)-[1,2,4]triazine-6-carboxylic acid amide], in the series on OCI-Ly3 cells, the GI50 result is “No inhibition”. The compound further yielded an IC50 in series [1] of 106 nM. At hERG channel (at 10 uM), the inhibition at 9 min, 10 µM was -5 ± 4%. Moreover, the inhibition at 9 min, 30 µM against hERG channel (at 30 uM) turned out to be 12 ± 6%.

The values are drawn from patent US20130310387A1, “Monocyclic Heteroaryl Cycloalkyldiamine Derivatives” (NOVARTIS AG, priority 2012, published 2013).
